According to US20070105114A1, “Biomarkers of cyclin-dependent kinase modulation” (priority 2003, published 2007):
Where a name gives a salt, the structure may show the parent alone. Read-outs that look alike come from different tables or passages of the source.

Experiments:
A2780s = experiment: 72 hr XTT proliferation assay; type: cell-based; conditions: Homo sapiens, 72 hr. XTT assay
Experimental: Treatment of A2780 and PBMC was carried out as described above. The doses of the cdk2 inhibitor were derived from an understanding of the kinetics of tumor cell growth inhibition by the cdk2 inhibitor as assessed by proliferation and clonogenic assays (Table 3). […] A minimal exposure of 8 hours was required for effective inhibition of colony formation. The values obtained from the 24 hour clonogenic assay were in good agreement with the 72 hour proliferation assay.

mouse ortholog of W28729 = experiment: Mouse ortholog of W28729 expression in PBMC of tumor mice; type: in vivo; conditions: PBMC isolated from the tumor mice, compared with tumors
Experimental: At the minimum efficacious dose (MED) of 18 mg/kg/day, the induction was sustained for more than 6 hours. In an infusion regimen using the minimum efficacious dose of 40 mg/kg, gene induction was sustained for at least 16 hours. […] Treatment with an efficacious regimen results in >2 fold induction of the sequence for 6 hours or longer. […] In addition, these observations support the use of PBMC as a surrogate tissue for monitoring changes in gene expression, that result from treatment with the cdk2 inhibitor.

[1] = test system: A2780 ovarian carcinoma cells; experiment: Clonogenic growth assay (colony formation); type: cell-based, human; conditions: for IC50 / IC90: Homo sapiens, A2780, A2780s Clonogenic assay; for IC50: read-out: IC50, inhibition of colony formation; for IC90: read-out: IC90, inhibition of colony formation
Experimental: Clonogenic Growth Assay: The colony growth inhibition was measured for the A2780 ovarian carcinoma cells using a standard clonogenic assay. In this assay, 200 cells/well were seeded into 6-well tissue culture plates (Falcon™) (Becton, Dickinson and Company, Franklin Lakes, N.J., USA) and allowed to attach for 18 hours. Assay medium consisted of RPMI-1640 plus 10% fetal bovine serum. Cells were then treated in duplicate with a six concentration dose-response curve. The maximum concentration of DMSO never exceeded 0.25%. Cells were exposed to the cdk2 inhibitor for 4, 8, or 24 hours. The cdk2 inhibitor was then removed and the cells were washed with 2 volumes of PBS. The normal growth medium was then replaced. Colonies were fed with fresh media every third day. Colony number was scored on day 10-14 using a Optimax imaging station. The cdk2 inhibitor concentration required to inhibit 50% or 90% of colony formation (IC50 or IC90, respectively) was determined by non-linear regression analysis. The coefficient of variance (standard deviation/mean, n=3)=30%. Treatment of A2780 and PBMC was carried out as described above. The doses of the cdk2 inhibitor were derived from an understanding of the kinetics of tumor cell growth inhibition by the cdk2 inhibitor as assessed by proliferation and clonogenic assays (Table 3). […] A minimal exposure of 8 hours was required for effective inhibition of colony formation. The values obtained from the 24 hour clonogenic assay were in good agreement with the 72 hour proliferation assay.

W28729 [2] = experiment: Clinical study CA174-001 (1 hr infusion), W28729 expression in patient PBMC by RT-PCR; type: in vivo, human; conditions: patients
Experimental: Patient inclusion criteria: The patient inclusion criteria included: primary solid malignancy refractory to current therapy and adequate bone marrow, hepatic, and renal function. Treatments: Two different treatments were undertaken: (i) 174-001 Study: 1 hr infusion of BMS-387032 q 3 wks; and (ii) 174-002 Study: 24 hr infusion of BMS-387032 q 3 wks. The sampling times were pre-dose, and 2, 6, 24 hour post-dose. W28729 Expression Analysis: RT-PCR. Patient blood samples were collected in PAXgene™ Blood Collection Tubes (Qiagen, catalog #762155). Total RNA was isolated following the manufacturer's instructions using a PAXgene™ blood RNA Kit (Qiagen, catalog #762134). W28729 and GAPDH (housekeeping gene) RNA abundance was measured by Taqman assays, using an ABI PRISM 7900 HT Sequence Detection System. W28729 abundance was normalized relative to GAPDH. Primer and probe sequences are as shown below.

W28729 [3] = experiment: W28729 expression in human ovarian carcinoma xenograft A2780 tumors in nude mice; type: in vivo, mouse
Experimental: The human ovarian carcinoma xenograft A2780s were maintained in Balb/c nu/nu nude mice. Tumors were propagated as subcutaneous (sc) transplants using tumor fragments obtained from donor mice. For the cdk2 inhibitor treatment, tumors were allowed to grow to the pre-determined size window of approximately 100-200 mg (tumors outside the range were excluded) and animals were evenly distributed to various treatment and control groups (n=6). Treatment of each animal was based on individual body weight. The cdk2 inhibitor was first dissolved in a mixture of Cremophor®/ethanol (50:50). One hour prior to administration, the cdk2 inhibitor was diluted with water so that the dosing solutions contained the specified excipient composition, i.e., Cremophor®/ethanol/water (1:1:8, v/v). The volume of all compounds injected was 0.01 ml/gm of mice. The cdk2 inhibitor was administered as a bolus injection intraperitoneal at doses of 36 and 18 mg/kg. Tumor and plasma were sampled at the time points of 4, 7, and 24 hour post treatment. Plasma sample was frozen immediately at −80° C. for pharmacokinetic analysis, and tumor sample was preserved in RNAase free buffer for pharmacogenomic analysis. The biomarker W28729 (SEQ ID NO: 1246) was selected as a preferred marker. A same-well multiplex real-time quantitative PCR assay on this biomarker with normalization control, house-keeping gene GAPDH, was developed using Taq-man MGB probes. Gene expression changes for W28729 were measured with real-time quantitative PCR assays in the following sample sets: A2780 human tumor cell line treated with 20 nM of cdk2 inhibitor for different durations (FIG. 3A), PBMC treated with 10n-M cdk2 inhibitor at 4 hours (FIG. 3B); and human ovarian carcinoma xenograft A2780 treated with cdk2 inhibitor at doses of 36 and 18 mg/kg for different durations (FIG. 3C). […] At the minimum efficacious dose (MED) of 18 mg/kg/day, the induction was sustained for more than 6 hours. In an infusion regimen using the minimum efficacious dose of 40 mg/kg, gene induction was sustained for at least 16 hours. […] Treatment with an efficacious regimen results in >2 fold induction of the sequence for 6 hours or longer. […] In addition, these observations support the use of PBMC as a surrogate tissue for monitoring changes in gene expression, that result from treatment with the cdk2 inhibitor.

For CC(C)(C)c1cnc(CSc2cnc(NC(=O)C3CCNCC3)s2)o1 [cdk2 inhibitor, N-5-[[5-(1,1-Dimethylethyl)-2-oxazolyl]methyl]thio]-2-thiazolyl-4-piperidinecarboxamide, 0.5-L-tartaric acid salt], the IC50 (A2780s) was 95 nM, the IC90 (A2780s) was 170 nM and the “induction of the mouse ortholog sequence in PBMC” value (mouse ortholog of W28729) was “strikingly similar pattern of induction”. The “minimal exposure required for effective inhibition of colony formation” value ([1]; A2780s) was 8 h, the “growth inhibition, dependence on exposure time” value ([1]; A2780s, proliferation and clonogenic assays) was “time dependent” and the IC50 ([1]; 4 hr. exposure) was 302 nM. The IC90 ([1]; 4 hr. exposure) was over 1000 nM, the IC50 ([1]; 8 hr. exposure) was 154 nM and the IC90 ([1]; 8 hr. exposure) was 303 nM. The IC50 ([1]; 24 hr. exposure) was 166 nM, the IC90 ([1]; 24 hr. exposure) was 208 nM and the “time of return of W28729 to baseline levels” value (W28729 [2]; 1 hour infusion) was at most 6 h. For the same compound, the “W28729 induction in PBMC” value (W28729 [2]; 1 hour infusion, at 2 hours) was “transient induction of W28729”, the “relationship between W28729 gene induction and dose or exposure (AUC)” value (W28729 [2]; CA174-001) was “linear relationship” and the “pattern of W28729 induction in the tumors” value (W28729 [3]; A2780 xenografts, bolus i.p. treatments) was “transient, dose-dependent manner”. For the same compound, the “duration of sustained W28729 induction” value (W28729 [3]; A2780 xenografts, bolus i.p., MED of 18 mg/kg/day) was “more than 6 hours”, the “duration of sustained gene induction” value (W28729 [3]; A2780 xenografts, infusion regimen, 40 mg/kg) was “at least 16 hours” and the “induction of the sequence” value (W28729 [3]; efficacious regimen, for 6 hours or longer) was over 2 fold. The “duration of W28729 gene induction versus dose” value (W28729 [3]; nude mice bearing A2780 xenografts, 36 and 18 mg/kg) was “dose-dependent prolongation of the duration of gene induction” and the “induction of W28729 in tumor” value (W28729 [3]; nude mice bearing A2780 xenografts, efficacious doses (36 and 18 mg/kg)) was “induction of W28729”.
